These results are taken from patent US11142588B2, “Polypeptides which bind C-X-C chemokine receptor type 4 (CXCR4) and methods of treating or reducing the risk of fibrosis and cancer” (AdAlta Limited, priority 2015, dated 2021).

One may read the IC50 as the point on the concentration scale where inhibition reaches its midpoint. A low value points to higher potency.

For assay [1] the following is noted: cited from earlier work.
Assay [2] relates to Ramos tumor cells. The assay is described as follows: MTT cell proliferation assay. In kind it is cell-based, human. To be noted: 24 to 72 hrs, AM3-114 at 10 μM. How it is done: The ability of the CXCR4 molecules or polypeptides disclosed herein (i-bodies) to inhibit proliferation of Ramos tumor cells, a human Burkitt's lymphoma cell line expressing CXCR4 mentioned above, in vitro was examined in a MTT cell proliferation assay as described in (Lapteva (2005) Cancer Gene Therapy 12, 84-89). Cells were grown in a 96-well tissue culture plate and treated with a vehicle or the anti-CXCR4 body. The cells were then incubated with the MTT solution for approximately 4 hours. After this incubation period, a water-insoluble formazan dye is formed. After solubilization, the formazan dye is quantitated using a scanning multi-well spectrophotometer (ELISA reader).
On the technique in general: Tetrazolium assays rely on reduction of a dye to a coloured formazan, in cell work by metabolically active cells.

Assay [3] is described as follows: Bleomycin mouse model of pulmonary fibrosis. The class given is in vivo. An excerpt: The optimal dose of Bleomycin is 2 U/mouse and the optimal time for assessing fibrocyte recruitment was confirmed at day 4. At days 4 bronchoalvelolar lavage (BAL) fluids were collected for analysis of SDF-1 concentration. One half of the lung tissue was used to make single cell suspensions of the lung and the cells used for flow cytometry and assayed for CD45+, CXCR4+ and Collagen1+ (fibrocytes). The other half of the lung tissue was Sircol stained for the presence of collagen 1 and RNA will be tested for Col-1, Col-3 and SDF-1.
SDF-1, fibrocytes and collagen deposition were monitored at Day 4. Groups were dosed with the i-body just prior to administration with Bleomycin. One half of the lung tissue was minced and washed in PBS and used to make single cell suspensions of the lung with Collagenase A and dispase treatment. The cells were then used for flow cytometry and assayed for CD45+, CXCR4+ and Collagen1+ fibrocytes. […]

Assay [4] has as its system Ramos tumor cells. As to the kind of experiment: Apoptosis assay (annexin V / propidium iodide flow cytometry). In kind it is cell-based, human. Conditions: annexin V and propidium iodide double positive, 24 or 72 hours. How it is done:
The ability of an i-body of the invention to induce apoptosis in Ramos tumor cells (a human Burkitt's lymphoma cell line) was examined in an apoptosis assay according to the methods as described in Mishra M et al (2011) J Cell Mol Med 15(11):2462-77. I-bodies were incubated with Ramos cells and examined by flow cytometry after 24 or 72 hours. The cells were stained for annexin V and propidium iodide which are classic markers for apoptosis. Cells which were double positive were assessed to have become apoptotic.

The subject of assay [5] is HIV entry into CXCR4 expressing T-cells. As to the kind of experiment: In vitro HIV inhibition assay. The class given is cell-based. Conditions: Human immunodeficiency virus 1, T-cell.
The test system of assay [6] is normal and IPF lung fibroblasts. The assay is described as follows: Wound healing invasion assay of lung fibroblasts. In kind it is cell-based, human. How it is done: To determine the role of CXCR4 and CXCL12 in fibroblast invasion, normal and IPF lung fibroblasts were utilized in a wound healing invasion assay. ImageLock 96 well plates (Essen Bioscience) were coated with 50 μg/ml of Basement membrane extract (BME; Trevigen) for one hour at room temperature. Normal, and fibroblasts generated from lung biopsies of idiopathic pulmonary fibrosis (IPF) patients showing slow progression or rapid progression of the disease were plated (36,000 cells per well) on the BME-coated plates and incubated overnight. […] The BME was allowed to polymerize by incubating the plate at 37° C. for 15 minutes. The plates were then inserted into an IncuCyte Zoom imaging system and images were acquired every 2 hours for approximately 50 hours. Invasion was quantified using IncuCyte software (Essen Bioscience).

Another assay relates to CCL2 and CCL5 protein. The assay is described as follows: CCL2, CCL5, CXCL12 ELISA of fibroblast conditioned supernatants. The class given is cell-based, human. Conditions: 48 hours. The text has this:
Various reports indicate that CXCR4 signals in conjunction with other chemokine receptors, including CCR2.

The test system of the next assay is CCRF-CEM cells. The assay is described as follows: Immunohistochemistry staining of tumours in spleen and liver of SCID/bg mice. To be noted: 130 μg/ml. As to the method:
Tissues were fixed in 10% neutral buffered formalin overnight and subsequently transferred into tissue cassettes and placed in 70% ethanol. The tissues were then paraffin embedded. Slides containing 4 μm sections were deparaffinized and hydrated by incubating them in two changes of xylene for five min each, followed by two changes of 100% ethanol for 3 min each, 70% ethanol for 2 min, 50% ethanol for 2 min, and distilled water for 5 min. Antigen retrieval was performed by incubating the slides in 10 mM Citric acid solution (pH 6.0) in an 80° C. oven overnight. The slides were subsequently washed in PBS and permeabilized in 10% methanol containing 0.4% H2O2 for 30 min. […] All slides were subsequently stained with biotinylated anti-His tag antibodies (Miltenyi Biotech) and developed using an HRP-DAB cell and tissue staining kit according to the manufacturer's instructions (R&D systems).

Consider `c1cc(CN2CCCNCCNCCCNCC2)ccc1CN1CCCNCCNCCCNCC1` [AMD3100, reference compound], for which, in assay [1] (Shu et al 2013), the “development of pulmonary fibrosis in irradiated mice” value is “did not significantly suppress”. In addition, in assay [1] (Xu et al 2007), the “bleomycin induced pulmonary fibrosis” value is “effectively alleviate bleomycin induced pulmonary fibrosis”. Further, the “growth of RAMOS cells” value in the assay on Ramos tumor cells [2] is “able to inhibit cell growth”. The “recruitment of fibrocytes into the lungs” value in assay [3] (day 4, dose not given) is recorded as “able to block recruitment of fibrocytes”. Further, the “collagen content of the lung (Sircol)” value in assay [3] (positive controls, dose not stated) is “reduction in collagen”. Further, the “induction of apoptosis in Ramos cells” value with Ramos tumor cells [4] is on record as “does not induce significant apoptosis”. Also, the IC50 in assay [5] was found to be 50 nM. Further, in assay [6] (AMD3100 12 μM, 21H5 130 μg/ml), the “invasion / motility of normal, slow and rapid IPF lung fibroblast lines” value is “had no effect”. Further, the “CCL2 protein in IPF fibroblast conditioned supernatants” value with CCL2 and CCL5 protein was “markedly increased”.

B1: AM4-272-6H: AM4-272 with 6 His tag, containing the N-terminal sequence EAEA (protein)
chain: EAEALQVDIVPSQGEISVGESKFFLCQVAGSYSDYRISWFSPNGEKLTPNQQRISVVWNDDSSSTLTIYNANIDDAGIYKCVVYRIGGYRHRYLVLGEATVNVKIFQ
modifications: left off: small tags and cut ends
In the case of B1, the “staining of CCRF-CEM cells in spleen and liver” value with CCRF-CEM cells is “stained CCRF-CEM cells”. Further, the “induction of apoptosis in Ramos cells” value in the assay with Ramos tumor cells [4] is “strongly induce apoptosis”. For the same molecule, in assay [6] (130 μg/ml), the “invasion of rapid-IPF (fast progressor) lung fibroblasts” value is reported as “two out three” and the “invasion of slow-IPF lung fibroblasts” value is given as “inhibited invasion”. In the assay on CCL2 and CCL5 protein, the “CCL2 protein in IPF fibroblast conditioned supernatants” value was “markedly increased” and the “CCL5 levels in IPF lung fibroblasts” value is on record as “increased CCL5 levels in some IPF lung fibroblasts”.
